Series [1] can be described thus: method code SF-AS, from DOI: 10.1016/0304-4165(87)90236-4, PMID: 2889474.
Assay in series [2]: not given
This is another data set of the same source.

Assay in series [3]: not given
This is another data set of the same source.

Assay in series [4]: not given
The source holds these as a separate data set.

Assay in series [5]: not given
The source holds these as a separate data set.

A short description of series [6]: method code SF-AS, from DOI: 10.1021/jm9807104, PMID: 10514282. Conditions: pH 7.0.
A short description of series [7]: method code SF-HPLC, from DOI: 10.1002/jps.23218, PMID: 22644947. Conditions: pH 7.0.
Assay in series [8]: not given
This is another data set of the same source.

A short description of series [9]: method code SF-AS, from DOI: 10.1021/jm300468t, PMID: 22574992. Conditions: pH 9.0.
Series [10] is described as follows: method code SF, from DOI: 10.1002/syn.20842. Conditions: pH 7.4.
Assay in series [11]: not given
This is another data set of the same source.

A short description of series [12]: method code SF-RC, from DOI: 10.1111/j.2042-7158.1981.tb11724.x.
Assay in series [13]: not given
The source holds these as a separate data set.

Assay in series [14]: not given
The source holds these as a separate data set.

Series [15] is described as follows: method code SF-AS, from DOI: 10.1002/jps.2600720808, PMID: 6620139.
Series [16] in a line: method code SF-AS, from DOI: 10.1111/j.2042-7158.1983.tb02957.x, PMID: 6135774.
Series [17] is described as follows: method code G-RC, from DOI: 10.1016/0300-483x(85)90031-9, PMID: 4049435.
Assay in series [18]: not given
This is another data set of the same source.

The nature of series [19]: method code SF-HPLC, from Suo, X.; Li, M.; Wang, Y.; Zhu, S. (2010). Study on oil-water partition coefficient of hydroxycamptothecin and its absorption efficiency in rat small intestine. Chinese Traditional Patent Medicine, …. Conditions: pH 7.4.
Series [20] is described as follows: method code SF, from DOI: 10.1111/j.1365-2958.1992.tb00853.x, PMID: 1640833.
Series [21] can be described thus: method code SF-HPLC, from DOI: 10.1016/j.ijpharm.2010.12.025, PMID: 21185925.
Assay in series [22]: not given
The source holds these as a separate data set.

Assay in series [23]: not given
This is another data set of the same source.

Series [24] can be described thus: method code SF-HPLC, from DOI: 10.1016/j.ejps.2012.04.024, PMID: 22609526.
Series [25] is described as follows: method code SF-AS, from DOI: 10.1021/jm00371a026, PMID: 6425501. Conditions: pH 7.4.
A short description of series [26]: from Zeng, J.; Huang, T.; Li, F.; Zhu, Z.; Chen, L.; Feng, L. (2014). Determination of apparent oil-water partition coefficient and equilibrium solubility of levonorgestrel and gestodene by RP-HPLC. ….
Series [27] in a line: method code SF-HPLC, from DOI: 10.1002/jps.23140, PMID: 22499243. Conditions: pH 7.4.
Assay in series [28]: not given
The source holds these as a separate data set.

Assay in series [29]: not given
The source holds these as a separate data set.

Series [30] can be described thus: method code SF-RC, from DOI: 10.1021/es60172a005, PMID: 22280000.
Series [31] in a line: method code SF-HPLC, from DOI: 10.1002/jps.23034, PMID: 22213574. To be noted: pH 7.4.
Series [32] in a line: method code SF-HPLC, from Pan, J.; Wu, Z.; Hui, A.; Tao, M. (2011). Determination of partition coefficients of ginkgolide beta and its prodrug. Shizhen Guo Yi Guo Yao, 22(10)2397-2400.
Series [33] is described as follows: method code SF, from DOI: 10.1021/jm300192x, PMID: 22519985. To be noted: pH 7.4.
Assay in series [34]: not given
This is another data set of the same source.

Assay in series [35]: not given
The source holds these as a separate data set.

A short description of series [36]: method code SF-RC, from DOI: 10.1021/jm050166g.s001, PMID: 16162001. Conditions: pH 7.4.
A short description of series [37]: method code SF-HPLC, from DOI: 10.1016/0168-3659(92)90067-2.
Series [38] is described as follows: method code SF-HPLC, from DOI: 10.1016/j.jpba.2007.09.019, PMID: 17988818.

The structures appear in SMILES notation. Non-standard residues stand in square brackets, D forms with d. Residues, ends and D or L forms follow the SMILES beside them.

For the compound `C=C1C(=O)OC2CC(C)C3C=CC(=O)C3(C)C(OC(=O)C=C(C)C)C12` (centres undefined), the logP (as a rule, a log measure of how a compound divides between an organic and an aqueous phase) in series [1] was determined as 1.47.

The compound `CCCCC[C@H](O)/C=C/[C@H]1[C@H](O)CC(=O)[C@@H]1C/C=C\CCCC(=O)O` came in with a logP of 2.9.

Regarding `CCOc1ccccc1OCCN[C@H](C)Cc1ccc(OC)c(S(N)(=O)=O)c1`, in series [2], the logP was 2.2.

In turn, `O=C(NN(C(=O)c1ccccc1)c1ccccc1)c1ccccc1` had a logP in series [3] of 3.32.

In [4], `Cc1cc2c(-c3ccccn3)c[nH]c2c(C(=O)Nc2ncccc2C)n1` showed a logP of 4.7.

For `FCCC1OC2(CCN(Cc3ccccc3)CC2)c2ccccc21` (centres undefined), the log partition coefficient (logP) in [5] is 3.58.

Turning to `COC(=O)C(C)NP(=O)(Oc1cccc(C(F)(F)F)c1)OC1C=CC(n2cc(C)c(=O)[nH]c2=O)O1` (centres undefined), the pH-dependent lipophilicity (logD) – broadly, the decadic logarithm of the distribution of all forms, ionised or not, between an organic phase and buffer at a given pH – in [6] is 1.57.

In [7], `CCOC(=O)N(CCN(C(=O)OCC)C(=O)OCC)CCN(C(=O)OCC)C(=O)OCC` showed a logD of 2.3.

As for `CN(C)CCO[C@]1(c2ccccc2)C[C@H]2CC[C@]1(C)C2(C)C`, the logP in [8] is 5.9.

Compound `Cc1c2c3cc(NC(=O)CNC(=O)CN)ccc3nc-2n(C)c2ccccc12` gave a logD in [9] of 0.85.

For `CCCS(=O)(=O)N1CCC(CNC(=O)c2ccc(Cl)cc2Cl)(c2cccc(F)n2)CC1`, the logD in series [10] was determined as 2.9.

In turn, `N#CCNC(=O)[C@@H]1CCCC[C@H]1C(=O)N1CCN(c2ccccc2)CC1` showed a logP in [11] of 1.8.

Consider `CCC(=O)O[C@H]1CC[C@H]2[C@@H]3CCC4=CC(=O)CC[C@]4(C)[C@H]3CC[C@]12C`, for which the logP in series [12] is 3.72.

`COc1cc(NC(C)=O)c(I)cc1C(=O)NCCCCN1CC2CCC1C2` (centres undefined): the lipophilicity (logP) in series [13] was 0.8.

In [14], `O[C@H](CNC[C@H](O)[C@H]1COc2ccccc2O1)[C@@H]1COc2ccccc2O1` displayed a logP of 2.45.

In series [15], `C[C@]12CCC(=O)C=C1CC[C@@H]1[C@@H]2CC[C@@]2(C)[C@H]1CC[C@]2(C)O` gave a logP of 3.36.

Consider `COc1cc(N)c(Cl)cc1C(=O)NC1CCN(Cc2ccccc2)CC1`, for which the lipophilicity (logP) in [16] is 2.99.

For the compound `O=[N+]([O-])c1c2ccccc2c2ccc3cccc4ccc1c2c43`, the lipophilicity (logP) in series [17] came out at 5.44.

Compound `CSc1nc(Nc2ccccc2)c2cnn(CCCl)c2n1` displayed a logP in [18] of 5.49.

In the case of `CC[C@@]1(O)C(=O)OCc2c1cc1n(c2=O)Cc2cc3cc(O)ccc3nc2-1`, the logD in [19] was 1.33.

Turning to `C[C@]12CCC(=O)C[C@@H]1CC[C@@H]1[C@@H]2CC[C@]2(C)C(=O)CC[C@@H]12`, in series [20], the lipophilicity (logP) turned out to be 3.6.

`CCCc1nc(C[C@H](NC(=O)[C@@H]2CCC(=O)N2)C(=O)N2CCC[C@H]2C(N)=O)c[nH]1`: the logP in series [21] was -1.07.

For the compound `CN(C)Cc1ccc(CSCCNc2[nH]cc(Cc3ccccc3)c2[N+](=O)[O-])o1`, in [22], the logP is 3.65.

In the case of `CNC(=O)c1ccc(Oc2ccc3c(c2)CCN(C2CCC2)CC3)nc1`, the logP in series [23] was 2.24.

The compound `O=c1c(O[C@@H]2OC[C@@H](O)[C@H](O)[C@H]2O)c(-c2ccc(O)c(O)c2)oc2cc(O)cc(O)c12` registered a logP in [24] of 1.75.

The compound `CO[C@@]12[C@H](COC(N)=O)C3=C(C(=O)C(C)=C(Nc4cccnc4)C3=O)N1C[C@@H]1N[C@@H]12` displayed a logD in series [25] of 0.52.

Regarding `C#C[C@]1(O)C=C[C@H]2[C@@H]3CCC4=CC(=O)CC[C@@H]4[C@H]3CC[C@@]21CC`, in series [26], the logP worked out at 3.45.

With `CCCCCCCCCCCCOP1(=O)OCC(Cn2ccc(N)nc2=O)O1` (centres undefined), in [27], the logD turned out to be 3.89.

For `CN(C)c1ccc(-c2ccc3cc(OCC(O)CF)ccc3n2)cc1` (centres undefined), the lipophilicity (logP) in [28] was 3.03.

As to `C[C@H]1[C@H](N2CCS(=O)(=O)CC2)O[C@@H]2O[C@@]3(C)CC[C@H]4[C@H](C)CC[C@@H]1[C@@]24OO3`, in [29], the logP stood at 2.49.

In turn, `Cc1ccc2cc3c(ccc4ccccc43)c3c2c1CC3` registered a logP in series [30] of 6.42.

In the case of `O=S(=O)(c1ccc(C(F)(F)F)cc1)N1c2cc(F)c(F)cc2-c2[nH]ncc2C1C1CC1` (centres undefined), the logD in [31] came to 3.91.

Regarding `CC1C(=O)OC2C(O)C34C5CC(C(C)(C)C)C36C(OC(=O)C6O)OC4(C(=O)O5)C12O` (centres undefined), the logP in [32] was determined as 0.59.

In the case of `OCC1OC(c2ccc(N3CCc4ccccc43)cc2)C(O)C(O)C1O` (centres undefined), the logD in series [33] is 2.3.

On to `CC(C)CC(O)C(O)C(CC1CCCCC1)NC(=O)OC(C)(C)C` (centres undefined), for which the logP in series [34] amounted to 3.98.

Turning to `COCCOC(=O)C1=C(C)NC(C)=C(C(=O)OC(C)C)C1c1cccc([N+](=O)[O-])c1` (centres undefined), the lipophilicity (logP) in [35] amounted to 2.82.

As for `CN(C)c1ccc(C=Cc2ccc(OCC(CO)CF)cc2)cc1` (centres undefined), in [36], the logD amounted to 3.14.

The compound `CC(=O)N[C@H](Cc1ccc(O)cc1)C(=O)N[C@H](Cc1ccc(O)cc1)C(N)=O` (Ac-[dY]-[dY]-NH2) displayed a logP in series [37] of -0.16.

With `COc1cc(C=Cc2cc(/C=C/c3ccc(O)c(OC)c3)n[nH]2)ccc1O`, the logP in [38] stood at 1.78.

(Values after the SangsterLogP compilation.)
